Data set [1] deals with Cerezyme (Recombinant GCase) (Homo sapiens (Human), UniProt P04062, R534H). In words: Inactivation assay: residual Cerezyme activity with 2,4-DNP-β-Glc substrate. Conditions: 37° C., pH 5.5. The format is biochemical.
Experimental: Inactivation solutions contained a final concentration of 16.55 nM of Cerezyme® (Recombinant GCase) in 200 μL of Reaction Buffer (50 mM acetate, 0.2% v/v Triton X-100, 0.3% w/v sodium taurocholate, pH 5.5). […] These enzyme Reaction Buffers were brought to 37° C. and spiked with a corresponding inhibitor to make the final inhibitor concentration either 20 nM, 40 nM, 60 nM, 80 nM, 120 nM, 160 nM and 200 nM. Once the inhibitor was added this was considered time=0 minutes. Meanwhile a 96 well plate inside a Biotek Synergy 4 hybrid multi-mode reader at 37° C. was being incubated. In the wells of the plate were waiting a high concentration (3.2 mM) of 2,4-DNP-β-Glc substrate in 180 μL of Reaction Buffer. […] Once all the aliquots were added the solution in the wells was measured for absorbance at 400 nm for 8 minutes. […] Inactivation rates for varying inhibitor concentrations were calculated using GraphPad Prism software and Equation 2 (below). […]
Small aliquots of these reaction mixtures were withdrawn and diluted 20-fold in 96 well plates containing a final concentration of 4 mM of the substrate 2,4-DNP-β-D-Glc. […] Residual enzymatic activity at different time points and concentrations was monitored by quantifying the release of 2,4-DNP after 2,4-DNP-3-D-Glc cleavage by Cerezyme®. […]
In data set [2] the target is Cerezyme, a recombinant form of GCase (Homo sapiens (Human), UniProt P04062, R534H). Conditions: cited from earlier work.
The conditions of data set [3]: in words; cited from earlier work.
In a further data set the target is GCase over GBA2 and GBA3 (Homo sapiens (Human), UniProt P04062). Conditions: in words; cited from earlier work.
Sequence of GCase over GBA2 and GBA3 (P04062 40-536): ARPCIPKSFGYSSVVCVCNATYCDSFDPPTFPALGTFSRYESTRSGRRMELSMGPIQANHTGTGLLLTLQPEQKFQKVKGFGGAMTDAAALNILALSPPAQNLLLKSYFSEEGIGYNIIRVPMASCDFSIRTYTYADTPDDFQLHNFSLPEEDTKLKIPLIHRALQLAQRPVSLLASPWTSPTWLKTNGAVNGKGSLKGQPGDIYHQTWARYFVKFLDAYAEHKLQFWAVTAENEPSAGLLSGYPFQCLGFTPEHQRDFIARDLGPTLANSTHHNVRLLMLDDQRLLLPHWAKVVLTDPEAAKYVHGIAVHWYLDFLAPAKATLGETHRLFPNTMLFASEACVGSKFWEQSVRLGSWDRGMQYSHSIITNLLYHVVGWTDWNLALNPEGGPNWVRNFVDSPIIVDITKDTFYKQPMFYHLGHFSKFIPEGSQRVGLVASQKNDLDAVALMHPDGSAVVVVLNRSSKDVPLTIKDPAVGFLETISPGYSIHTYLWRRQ
Data set [4] concerns the target GCase in the presence of Saposin C (Homo sapiens (Human), UniProt P04062). In words: GCase inactivation rate in the presence of Saposin C. The format is biochemical. Conditions: in words.
In another data set the target is GCase (Homo sapiens (Human), UniProt P04062). Conditions: cited from earlier work; for ki/Ki previously reported: previously reported (ref 44).
Sequence of GCase (P04062 40-536): as above

Sequence of Cerezyme (Recombinant GCase) (P04062 40-536 R534H limits assumed): as the sequence (P04062 40-536) above, with R495H counted along it
Sequence of Cerezyme, a recombinant form of GCase (P04062 40-536 R534H limits assumed): as the sequence (P04062 40-536) above, with R495H counted along it
Sequence of GCase in the presence of Saposin C (P04062 40-536): as the sequence (P04062 40-536) above

Turning to `O[C@H]1[C@H](O)[C@@H](O)[C@H]2[C@@H]([C@@H]1O)N2CCCCC#Cc1ccc(F)cc1` (mixture of isomers) [Compound 34, (±)-(1R,2S,3R,4R,5S,6S)-7-(6-(4-fluorophenyl)hex-5-yn-1-yl)-7-azabicyclo[4.1.0]heptane-2,3,4,5-tetraol], in data set [1], the ki/Ki came out at 5100 ± 100 mM⁻¹ min⁻¹.
Turning to `O=[N+]([O-])c1ccc(OC2O[C@H](CO)[C@@H](O)[C@H](O)[C@H]2F)c([N+](=O)[O-])c1` (stereo partly drawn) [Compound 1.1, β-2,4-dinitrophenyl-fluorodeoxyglucose], the t½ of glucosyl-enzyme in data set [2] was > 1300 min.
As for “N-octyl conduritol aziridine [Compound 1.7]”, the cell permeability result in data set [3] is “cell permeable”. The ki/Ki in data set [1] was 4700 ± 250 mM⁻¹ min⁻¹; at GCase (inhibition of GCase, reported data), 25.0 μM^−1/min^−1. The “selectivity for GCase over GBA2 and GBA3” value on GCase over GBA2 and GBA3 was “selective inhibition of GCase over GBA2 and GBA3”. The “inactivation rates towards GCase with Saposin C” value in data set [4] was “enhanced”. For the same compound, the ki/Ki previously reported at GCase is 3670 ± 70 mM⁻¹ min⁻¹. Further, the ki on GCase (rate constant of inactivation of GCase, reported data) is 0.120 min⁻¹.
As for butyl conduritol aziridine, the ki/Ki previously reported on GCase is 3.8 ± 0.1 mM⁻¹ min⁻¹.
Take hexyl conduritol aziridine: the ki/Ki previously reported on GCase was 640 ± 30 mM⁻¹ min⁻¹.
